One assay relates to Aphis gossypii. The experiment in a line: Aphis gossypii test (cotton leaf immersion). Type of assay: in vivo. The following applies: 144 h, after 6 days at a concentration of 100 ppm, cotton leaves (Gossypium hirsutum), read-out: death rate. On the procedure: After the desired time the death rate was determined in %, where 100% means that all aphids were killed; 0% means that no aphids were killed

For a further assay, the system named is Myzus persicae. The experiment in a line: Myzus test (spray treatment). Type of assay: in vivo. To be noted: 120 h, after 5 days at a concentration of 500 g/ha, read-out: death rate. On the procedure: After the desired time the death rate was determined in %, where 100% means that all aphids were killed; 0% means that no aphids were killed.
The mark [1] stands for this setting: China cabbage leaves (Brassica pekinensis).

Like-named read-outs stand apart in the source and are kept apart here.

Drawing on patent US20080293674A1, “Azinyl Imidazoazine and Azinyl Carboxamide” (priority 2004, published 2008), this text covers pest or weed control for 16 compounds.

For `CO/N=C/c1nc(-c2cnccc2C(F)(F)F)n2ccccc12` [Example 6, 1-methoximinomethyl-3-(4-trifluoromethylpyridin-3-yl)-imidazo[1,5-a]-pyridine], the pest or weed control at 100 ppm with Aphis gossypii was at least 80%. In the assay with Myzus persicae (setting [1]), the pest or weed control at 500 g/ha is at least 80%.

As for `Cc1cc(CNC(=O)c2cnccc2C(F)(F)F)nc(C)n1` [II-38, N-(2,6-Dimethylpyrimidin-4-ylmethyl)-4-trifluoromethyl nicotinamide], the results for the pest or weed control at 500 g/ha in the assay with Myzus persicae (setting [1]) and in the assay with Myzus persicae (compounds of structure (II-b)) were at least 80% and at least 90%, respectively.

In the case of `FC(F)(F)c1ccncc1-c1nc(Br)c2ccccn12` [Example 3, 1-bromo-3-(4-trifluoromethylpyridin-3-yl)-imidazo[1,5-a]pyridine], in the assay on Myzus persicae (setting [1]), the pest or weed control at 500 g/ha is at least 80%.

With `CSc1nc(-c2cnccc2C(F)(F)F)n2ccccc12` [Example 128], in the assay on Myzus persicae (setting [1]), the pest or weed control at 500 g/ha is at least 80%.

For the compound `FC(F)(F)c1ccncc1-c1nc(-c2cccc(Cl)c2)c2ccccn12` [Example 7, 1-(3-chlorophenyl)-3-(4-trifluoromethylpyridin-3-yl)-imidazo[1,5-a]-pyridine], the pest or weed control at 500 g/ha in the assay with Myzus persicae (setting [1]) is at least 80%.

As for `FC(F)(F)c1ccncc1-c1nc(Cl)c2ccccn12` [Example 4, 1-chloro-3-(4-trifluoromethylpyridin-3-yl)-imidazo[1,5-a]pyridine], the pest or weed control at 100 ppm in the assay with Aphis gossypii is at least 80%. In the assay on Myzus persicae (setting [1]), the pest or weed control at 500 g/ha is at least 80%.

`Cc1cc(C)nc(CNC(=O)c2cnccc2C(F)(F)F)n1` [II-11, N-(4,6-Dimethylpyrimidin-2-ylmethyl)-4-trifluoromethyl-nicotinamide]: in the assay with Myzus persicae (compounds of structure (II-b)), the pest or weed control at 500 g/ha was at least 90%.

For `FC(F)(F)c1ccncc1-c1nc(/C=C/c2ccccc2)c2ccccn12` [Example 127, 1-(phenylvinylidene)-3-(4-Trifluoromethylpyridin-3-yl)-imidazo[1,5-a]-pyridine], the pest or weed control at 100 ppm in the assay with Aphis gossypii is at least 80%. In the assay on Myzus persicae (setting [1]), the pest or weed control at 500 g/ha was at least 80%.

`FC(F)(F)c1ccncc1-c1nc(CN(Cc2ccccc2)Cc2ccccc2)c2ccccn12` [Example 124, 1-(dibenzylaminomethyl)-3-(4-trifluoromethylpyridin-3-yl)-imidazo[1,5-a]pyridine]: the pest or weed control at 100 ppm with Aphis gossypii is at least 80%. In addition, the pest or weed control at 500 g/ha with Myzus persicae (setting [1]) is at least 80%.

Turning to `FC(F)(F)c1cc(Cl)c2c(Cl)nc(-c3cnccc3C(F)(F)F)n2c1` [Example 38], the pest or weed control at 100 ppm in the assay on Aphis gossypii is at least 80%. In addition, the pest or weed control at 500 g/ha in the assay on Myzus persicae (setting [1]) is at least 80%.

Consider `O=C(NCc1ncccn1)c1cnccc1C(F)(F)F` [II-27, N-Pyrimidin-2-ylmethyl-4-trifluoromethyl-nicotinamide], for which the pest or weed control at 500 g/ha in the assay with Myzus persicae (compounds of structure (II-b)) is at least 90%.

Take `O=Cc1nc(-c2cnccc2C(F)(F)F)n2ccccc12` [Example 5, 3-(4-trifluoromethylpyridin-3-yl)-imidazo[1,5-a]pyridine-1-carboxaldehyde]: the pest or weed control at 100 ppm with Aphis gossypii is at least 80%. Besides, the pest or weed control at 500 g/ha in the assay with Myzus persicae (setting [1]) is at least 80%.

Regarding `O=C(O)c1nc(-c2cnccc2C(F)(F)F)n2ccccc12` [Example 126, 3-(4-trifluoromethylpyridin-3-yl)-imidazo[1,5-a]pyridine-1-carboxylic acid], the pest or weed control at 100 ppm in the assay on Aphis gossypii is at least 80%. In addition, the pest or weed control at 500 g/ha in the assay with Myzus persicae (setting [1]) was at least 80%.

For `Cc1cnc(CNC(=O)c2cnccc2C(F)(F)F)cn1` [II-29], the pest or weed control at 500 g/ha in the assay on Myzus persicae (compounds of structure (II-b)) is at least 90%.

`FC(F)(F)c1ccncc1-c1ncc2ccccn12` [Example 1, 3-(4-trifluoromethylpyridin-3-yl)-imidazo[1,5-a]pyridine]: in the assay on Aphis gossypii, the pest or weed control at 100 ppm was at least 80%. Moreover, the pest or weed control at 500 g/ha in the assay with Myzus persicae (setting [1]) is at least 80%.

In the case of `FC(F)(F)c1ccncc1-c1nc(C#Cc2ccccc2)c2ccccn12` [Example 8, 1-(phenylethynyl)-3-(4-trifluoromethylpyridin-3-yl)-imidazo[1,5-a]-pyridine], in the assay on Aphis gossypii, the pest or weed control at 100 ppm is at least 80%. For the same compound, in the assay on Myzus persicae (setting [1]), the pest or weed control at 500 g/ha was at least 80%.
